Molecules are shown by their SMILES.

The values below come from US7732468B2, “3-aryl-6-aryl-[ 1,2,4]triazolo[3,4-b][1,3,4]thiadiazoles and related compounds as activators of caspases and inducers of apoptosis and the use thereof” (Cytovia, Inc., priority 2006, dated 2010).

Type in all cases: cell-based
Assay [1] concerns Human breast cancer cell lines T-47D. The experiment in a line: Caspase cascade activation (Ac-DEVD-R110 fluorogenic substrate) in T-47D cells. The note with it: T47D cells, 48 h incubation, read-out: caspase potency EC50 T47D. An outline of the steps: (§1)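 48 h compound exposure (0.016–10 μM final), 37 °C, 5% CO2; add 14 μM Ac-DEVD-R110 in lysolecithin/DTT/PIPES pH 7.2; RT 3 h; fluorescence 485/530 nm. Net RFU vs untreated control → EC50 by sigmoidal fit.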

The subject of assay [2] is human colon carcinoma cell line HCT116. Kind of assay: Caspase cascade activation in HCT116 cells. As to conditions: HCT-116, 48 h incubation, read-out: caspase potency EC50 HCT116. The essentials: as §1
For assay [3], the system named is human lymphoma cell line Raji. The experiment in a line: Caspase cascade activation in Raji cells. As to conditions: RAJ1 cells, 48 h incubation, read-out: caspase potency EC50 RAJ1. An outline of the steps:
as §1

Assay [4] deals with human B cell lymphoblastoid cell line Ramos. The experiment in a line: Caspase cascade activation in Ramos cells. The note with it: 48 h incubation, read-out: caspase potency EC50 RAMOS. The essentials: as §1
Assay [5] relates to human hepatocellular carcinoma cell line SNU398. Kind of assay: Caspase cascade activation in SNU398 cells. As to conditions: SNU-398, 48 h incubation, read-out: caspase potency EC50 SNU398. The essentials: as §1
Assay [6] has as its system human Burkitt's lymphoma cell line Namalwa. The experiment in a line: Caspase cascade activation in Namalwa cells. The note with it: Burkitts lymphoma cell, 48 h incubation, read-out: caspase potency EC50 Namalwa. The essentials: as §1
Assay [7] deals with human cancer cell line H1299. Kind of assay: Caspase cascade activation in H1299 cells. The note with it: NCI-H1299, 48 h incubation, read-out: caspase potency EC50 H1299. The method, then:
Human breast cancer cell lines T-47D, human hepatocellular carcinoma cell line SNU398, human colon carcinoma cell line HCT116, human cancer cell line H11299, human Burkitt's lymphoma cell line Namalwa, human lymphoma cell line Raji, and human B cell lymphoblastoid cell line Ramos were grown according to media component mixtures designated by American Type Culture Collection+10% FCS (Invitrogen Corporation), in a 5% CO2-95% humidity incubator at 37° C. T-47D and H1299 cells were maintained at a cell density between 50 and 80% confluency at a cell density of 0.1 to 0.6×10^6 cells/mL. Cells were harvested at 600×g and resuspended at 0.65×10^6 cells/mL into appropriate media+10% FCS. An aliquot of 22.5 μL of cells was added to a well of a 384-well microtiter plate containing 2.5 μL of a 10% DMSO in RPMI-1640 media solution containing 0.16 to 100 μM of 6-(3,4-dimethoxyphenyl)-3-(2-methoxyphenyl)-[1,2,4]triazolo[3,4-b][1,3,4]thiadiazole or other test compound (0.016 to 10 μM final). An aliquot of 22.5 μL of cells was added to a well of a 384-well microtiter plate containing 2.5 μL of a 10% DMSO in RPMI-1640 media solution without test compound as the control sample. The samples were mixed by agitation and then incubated at 37° C. for 48 h in a 5% CO2-95% humidity incubator. After incubation, the samples were removed from the incubator and 25 μL of a solution containing 14 μM of N-(Ac-DEVD)-N′-ethoxycarbonyl-R110 (SEQ ID No.:1) fluorogenic substrate (Cytovia, Inc.; WO99/18856), 20% sucrose (Sigma), 20 mM DTT (Sigma), 200 mM NaCl (Sigma), 40 mM Na PIPES buffer pH 7.2 (Sigma), and 500 μg/mL lysolecithin (Calbiochem) was added. The samples were mixed by agitation and incubated at room temperature. Using a fluorescent plate reader (Model SPECTRAfluor Plus, Tecan), an initial reading (T=0) was made approximately 1-2 min after addition of the substrate solution, employing excitation at 485 nm and emission at 530 nm, to determine the background fluorescence of the control sample. After the 3 h incubation, the samples were read for fluorescence as above (T=3 h).
The Relative Fluorescence Unit values (RFU) were used to calculate the sample readings as follows: RFU(T=3h)−Control RFU(T=0)=Net RFU(T=3h)
The activity of caspase cascade activation was determined by the ratio of the net RFU value for 6-(3,4-dimethoxyphenyl)-3-(2-methoxyphenyl)-[1,2,4]triazolo[3,4-b][1,3,4]thiadiazole (Example I) or other test compound to that of control samples. The EC50 (nM) was determined by a sigmoidal dose-response calculation (Prism 3.0, GraphPad Software Inc.).

In assay [8] the test system is Human breast cancer cell lines T-47D. Kind of assay: Inhibition of cell proliferation (GI50, CellTiter-Glo) in T-47D cells. As to conditions: T47D cells, 48 h incubation. On the procedure:
(§2) Human breast cancer cell lines T-47D, MX1 and MDAMB435, human colon carcinoma cell line HCT116, human leukemia cell line K562, human lymphoma cell line Raji, human B cell lymphoblastoid cell line Ramos, and human Burkitt's lymphoma cell line Namalwa were grown and harvested as in Example 14. An aliquot of […] of cells (4.4×10^4 cells/mL) was added to a well of a 96-well microtiter plate containing 5 μL of a 10% DMSO in RPMI-1640 media solution containing 10 nM to 100 μM of 6-(3,4-dimethoxyphenyl)-3-(2-methoxyphenyl)-[1,2,4]triazolo[3,4-b][1,3,4]thiadiazole (1 nM to 10 μM final). An aliquot of 45 μL of cells was added to a well of a 96-well microtiter plate containing 5 μL of a 10% DMSO in RPMI-1640 media solution without compound as the control sample for maximal cell proliferation (LMax). The samples were mixed by agitation and then incubated at 37° C. for 48 h in a 5% CO2-95% humidity incubator. After incubation, the samples were removed from the incubator and 25 μL of CellTiter-Glo™ reagent (Promega) was added. The samples were mixed by agitation and incubated at room temperature for 10-15 min. Plates were then read using a luminescent plate reader (Model SPECTRAfluor Plus, Tecan) to give Ltest values.
(§3) The samples were mixed by agitation and then incubated at 37° C. for 0.5 h in a 5% CO2-95% humidity incubator. After incubation, the samples were removed from the incubator and 25 μL of CellTiter-Glo™ reagent (Promega) was added. The samples were mixed by agitation and incubated at […] 10-15 min at room temperature in a 5% CO2-95% humidity incubator. Fluorescence was read as above, (LStart) defining luminescence for initial cell number used as baseline in GI50 determinations.
(§4) GI50 (dose for 50% inhibition of cell proliferation) is the concentration where [(LTest−LStart)/(LMax−LStart)]=0.5.

The test system of assay [9] is human colon carcinoma cell line HCT116. Kind of assay: Inhibition of cell proliferation (GI50) in HCT116 cells. The note with it: HCT 116 cells, 48 h incubation. The method, then:
as §2, §3, §4

The subject of assay [10] is Human breast cancer cell lines MX1. The experiment in a line: Inhibition of cell proliferation (GI50) in MX1 cells. The note with it: 48 h incubation. On the procedure:
as §2, §3, §4

In assay [11] the test system is Human breast cancer cell lines MDAMB435. Kind of assay: Inhibition of cell proliferation (GI50) in MDAMB435 cells. As to conditions: MDA MB 435 cells, 48 h incubation. The method, then:
as §2, §3, §4

The test system of assay [12] is human Burkitt's lymphoma cell line Namalwa. The experiment in a line: Inhibition of cell proliferation (GI50) in Namalwa cells. The note with it: Burkitts lymphoma cell, 48 h incubation. The method, then: as §2, §3, §4
For assay [13], the system named is human lymphoma cell line Raji. The experiment in a line: Inhibition of cell proliferation (GI50) in Raji cells. As to conditions: 48 h incubation. On the procedure:
as §2, §3, §4

Assay [14] has as its system human B cell lymphoblastoid cell line Ramos. Kind of assay: Inhibition of cell proliferation (GI50) in Ramos cells. As to conditions: 48 h incubation. The method, then: as §2, §3, §4
The test system of assay [15] is human leukemia cell line K562. Kind of assay: Inhibition of cell proliferation (GI50) in K562 cells. The note with it: 48 h incubation. The method, then:
as §2, §3, §4

`COc1ccc(-c2nn3c(-c4ccccc4C)nnc3s2)cc1OC` [E, 6-(3,4-Dimethoxyphenyl)-3-o-tolyl-[1,2,4]triazolo[3,4-b][1,3,4]thiadiazole]: the EC50 in assay [1] came to 561 nM; in [2] it was 5020 nM; in assay [3], 274 nM; in [4] it was 235 nM; in [5], 507 nM; in assay [6], 253 nM. For the same molecule, the EC50 in [7] came out at 3000 nM. In addition, the GI50 in assay [8] was determined as 3850 nM; in [9] it was 6220 nM; in assay [10], 4000 nM; in assay [11], 894 nM; in [12], 7870 nM; in [13] it was 9400 nM. In addition, the GI50 in assay [14] amounted to 3000 nM; in assay [15], 2490 nM.
Turning to `COc1ccccc1-c1nnc2sc(-c3ccc(C)c(N)c3)nn12` [Entry 5, 6-(3-Amino-4-methylphenyl)-3-(2-methoxyphenyl)-[1,2,4]triazolo[3,4-b][1,3,4]thiadiazole], the 50% effective concentration (EC50) is 121 nM in assay [1], 40 nM in assay [2], 33 nM in assay [5] and 18 nM in assay [6]. Also, the concentration for 50% growth inhibition (GI50) in [8] came to 22 nM; in assay [9] it was 107 nM; in assay [12] it was 21 nM.
Turning to `CCc1cc(-c2nnc3sc(-c4ccc(OC)cc4)nn23)n(C)n1` [C, 3-(3-Ethyl-1-methyl-1H-pyrazol-5-yl)-6-(4-methoxyphenyl)-[1,2,4]triazolo[3,4-b][1,3,4]thiadiazole], the EC50 in assay [1] is 4030 nM; in assay [2], 4570 nM; in [3], above 10000 nM; in assay [4], 566 nM; in [5], 1720 nM; in assay [6], 574 nM. Further, the GI50 in [8] is 900 nM; in assay [10], 9000 nM.
With `CCOc1ccc(-c2nn3c(-c4ccccc4C)nnc3s2)cc1` [P, 6-(4-Ethoxyphenyl)-3-o-tolyl-[1,2,4]triazolo[3,4-b][1,3,4]thiadiazole], the EC50 in [1] is 2370 nM; in [2], 5750 nM; in assay [3] it was above 10000 nM; in assay [4], 5710 nM; in assay [5] it was 5550 nM; in assay [6], above 10000 nM. Besides, the EC50 in assay [7] stood at 5140 nM. Also, the GI50 was above 10000 nM in assay [9]; 7690 nM in [12]; 9740 nM in assay [13]; 6420 nM in [14]; 3270 nM in [15].
In the case of `CCc1cc(-c2nnc3sc(-c4ccc(C)cc4)nn23)n(C)n1` [A, 3-(3-Ethyl-1-methyl-1H-pyrazol-5-yl)-6-p-tolyl-[1,2,4]triazolo[3,4-b][1,3,4]thiadiazole], the EC50 is 3680 nM in [1]; 5450 nM in assay [2]; above 10000 nM in assay [3]; above 10000 nM in assay [4]; 1860 nM in assay [5]; above 10000 nM in assay [6]. Further, in assay [7], the EC50 is 3160 nM. In addition, the GI50 stood at 2730 nM in assay [8], 4080 nM in assay [10] and 253 nM in [11].
For `COc1ccc(-c2nn3c(-c4ccccc4OC)nnc3s2)cc1N` [Entry 7, 6-(3-Amino-4-methoxyphenyl)-3-(2-methoxyphenyl)-[1,2,4]triazolo[3,4-b][1,3,4]thiadiazole], the EC50 was 284 nM in assay [1], 21 nM in [2], 19 nM in assay [5] and 18 nM in [6]. Also, the figures for the GI50 in assay [8], in [9] and in assay [12] were 100 nM, 83 nM and 14 nM, respectively.
Consider `Cc1ccc(-c2nn3c(-c4n[nH]c5c4CCC5)nnc3s2)cc1` [Entry M1, 6-(4-Methylphenyl)-3-(1,4,5,6-tetrahydrocyclopenta[c]pyrazol-3-yl)-[1,2,4]triazolo[3,4-b][1,3,4]thiadiazole], for which the EC50 in [1] worked out at 395 nM; in assay [2], 67 nM; in assay [3] it was 81 nM; in assay [4], 40 nM; in assay [5], 34 nM; in assay [6], 39 nM. The figures for the concentration for 50% growth inhibition (GI50) in assay [8], in [9] and in assay [12] were 200 nM, 89 nM and 16 nM, respectively.
As to `CCOc1ccc(-c2nn3c(-c4ccccc4Cl)nnc3s2)cc1` [O, 3-(2-Chlorophenyl)-6-(4-ethoxyphenyl)-[1,2,4]triazolo[3,4-b][1,3,4]thiadiazole], the EC50 was 2430 nM in assay [1]; above 10000 nM in assay [2]; above 10000 nM in assay [3]; above 10000 nM in assay [4]; above 10000 nM in assay [5]; above 10000 nM in [6]. In addition, in [7], the EC50 is above 10000 nM.
Take `CCN(CC)c1ccc(-c2nn3c(-c4n[nH]c5c4CCC5)nnc3s2)cc1` [Entry K1, 6-(4-Diethylaminophenyl)-3-(1,4,5,6-tetrahydrocyclopenta[c]pyrazol-3-yl)-[1,2,4]triazolo[3,4-b][1,3,4]thiadiazole]: the EC50 in [1] was 636 nM; in assay [2], 1020 nM; in [3], 617 nM; in assay [4], 585 nM; in assay [6], 580 nM. In addition, the figures for the GI50 in [8], in assay [9] and in assay [12] were 167 nM, 497 nM and 138 nM, respectively.
